Where two headings read alike, the source gives them in different places.
Target: T1, human recombinant GST-PAK1-KD protein (Homo sapiens, UniProt Q13153)
T1 construct: residues #249-545 of human PAK1, UniProtKP/Swiss Q13153; His6 (N); made in house; host or cells: Sf9 insect cells, pAcGP67 baculovirus expression vector
Assay: GST-PAK1-KD (kinase domain) biochemical assay, microfluidic mobility shift

[1] = Table II, PAK1 Ki class, read-out: Ki

T1 sequence (Q13153 249-545): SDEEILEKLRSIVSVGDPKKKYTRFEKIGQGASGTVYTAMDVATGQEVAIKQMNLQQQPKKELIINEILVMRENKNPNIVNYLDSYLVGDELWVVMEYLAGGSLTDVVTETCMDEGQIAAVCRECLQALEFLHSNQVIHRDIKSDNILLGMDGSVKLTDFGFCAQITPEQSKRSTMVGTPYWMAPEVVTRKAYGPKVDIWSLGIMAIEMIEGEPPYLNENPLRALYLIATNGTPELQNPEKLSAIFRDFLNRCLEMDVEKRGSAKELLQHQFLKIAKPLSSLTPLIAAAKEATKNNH

| Compound | Ki [1] [µM] | further results |
| --- | --- | --- |
| COc1cc(Nc2ccnc(N(C)Cc3ccc4[nH]cnc4c3Cl)n2)n[nH]1 [II-29, N^2-((4-Chloro-1H-benzo[d]imidazol-5-yl)methyl)-N^4-(5-methoxy-1H-pyrazol-3-yl)-N^2-methylpyrimidine-2,4-diamine] | 0.05 to 0.25 | – |
| COc1n[nH]c2cccc(CN(C)c3nccc(Nc4cc(C5CC5)[nH]n4)n3)c12 [II-30, N^4-(5-cyclopropyl-1H-pyrazol-3-yl)-N^2-((3-methoxy-1H-indazol-4-yl)methyl)-N^2-methylpyrimidine-2,4-diamine] | – | Ki: 0.05 to 0.25 µM |
| Cc1cc2[nH]cnc2cc1[C@H](C)Nc1nccc(Nc2cc(C3CC3)[nH]n2)n1 [II-31, (S)-N^4-(5-Cyclopropyl-1H-pyrazol-3-yl)-N^2-(1-(6-methyl-1H-benzo[d]imidazol-5-yl)ethyl)pyrimidine-2,4-diamine] | 0.05 to 0.25 | – |
| Cc1nc2c(CNc3ncc(F)c(Nc4cc(C5CC5)[nH]n4)n3)cc(Cl)cc2[nH]1 [II-32, N^2-((6-Chloro-2-methyl-1H-benzo[d]imidazol-4-yl)methyl)-N^4-(5-cyclopropyl-1H-pyrazol-3-yl)-5-fluoropyrimidine-2,4-diamine] | 0.05 to 0.25 | – |
| Cc1nc2c(CNc3nccc(Nc4cc(C5CC5)[nH]n4)n3)cc(F)cc2[nH]1 [II-34, N^4-(5-Cyclopropyl-1H-pyrazol-3-yl)-N^2-((6-fluoro-2-methyl-1H-benzo[d]imidazol-4-yl)-methyl)pyrimidine-2,4-diamine] | 0.05 to 0.25 | – |
| COCCN(Cc1ccc2[nH]cnc2c1)c1nccc(Nc2cc(C3CC3)[nH]n2)n1 [II-35, N^2-((1H-benzo[d]imidazol-5-yl)methyl)-N^4-(5-cyclopropyl-1H-pyrazol-3-yl)-N^2-(2-methoxyethyl)pyrimidine-2,4-diamine] | 0.05 to 0.25 | – |
| CN(Cc1ccc2[nH]cnc2c1Cl)c1nccc(Nc2cc(OCc3ccccn3)[nH]n2)n1 [II-36] | 0.05 to 0.25 | – |
| C[C@H](Nc1nccc(Nc2cc(C3CC3)[nH]n2)n1)c1cc2nc[nH]c2cc1Cl [II-38, (S)-N^2-(1-(6-Chloro-1H-benzo[d]imidazol-5-yl)ethyl)-N^4-(5-cyclopropyl-1H-pyrazol-3-yl)pyrimidine-2,4-diamine] | 0.05 to 0.25 | – |
| CN(Cc1ccc2[nH]cnc2c1Cl)c1ncc(F)c(Nc2cc(C(F)(F)F)[nH]n2)n1 [II-39, N^2-((4-Chloro-1H-benzo[d]imidazol-5-yl)methyl)-5-fluoro-N^4-(5-(trifluoromethyl)-1H-pyrazol-3-yl)-N2-methylpyrimidine-2,4-diamine] | 0.05 to 0.25 | – |
| C[C@H](Nc1nccc(Nc2cc(C3CC3)[nH]n2)n1)c1cc(F)cc2c1cnn2C [II-40, (S)-N^4-(5-cyclopropyl-1H-pyrazol-3-yl)-N^2-(1-(6-fluoro-1-methyl-1H-indazol-4-yl)ethyl)pyrimidine-2,4-diamine] | 0.05 to 0.25 | – |
| C[C@H](Nc1nccc(Nc2cc(C3CC3)[nH]n2)n1)c1cccc2[nH]cnc12 [II-41, (S)-N^2-(1-(1H-benzo[d]imidazol-4-yl)ethyl)-N^4-(5-cyclopropyl-1H-pyrazol-3-yl)pyrimidine-2,4-diamine] | 0.05 to 0.25 | – |
| CN(Cc1ccc2[nH]cnc2c1Cl)c1ncc(F)c(Nc2cc(C(C)(C)C)[nH]n2)n1 [II-42, N^4-(5-tert-Butyl-1H-pyrazol-3-yl)-N^2-((4-chloro-1H-benzo[d]imidazol-5-yl)methyl)-5-fluoro-N^2-methylpyrimidine-2,4-diamine] | 0.05 to 0.25 | – |
| Clc1c(CNc2nccc(Nc3cc(COC4CCC4)[nH]n3)n2)ccc2[nH]cnc12 [II-43, N^2-((4-Chloro-1H-benzo[d]imidazol-5-yl)methyl)-N^4-(5-(cyclobutoxymethyl)-1H-pyrazol-3-yl)pyrimidine-2,4-diamine] | 0.05 to 0.25 | Ki (GST-PAK1-KD Inhibition Assay - Example 65, read-out: PAK1 inhibition Ki): 0.284 µM |
| Clc1cc(CNc2nccc(Nc3cc(C4CC4)[nH]n3)n2)c2nc[nH]c2c1 [II-44, N^2-((6-Chloro-1H-benzo[d]imidazol-4-yl)methyl)-N^4-(5-cyclopropyl-1H-pyrazol-3-yl)-pyrimidine-2,4-diamine] | < 0.05 | – |
| Cc1cc(Nc2ccnc(NCc3ccc4[nH]cnc4c3Cl)n2)n[nH]1 [II-46, N^2-((4-Chloro-1H-benzo[d]imidazol-5-yl)methyl)-N^4-(5-methyl-1H-pyrazol-3-yl)pyrimidine-2,4-diamine] | 0.05 to 0.25 | – |
| CNCCN(Cc1cc(F)cc2[nH]ncc12)c1nccc(Nc2cc(C3CC3)[nH]n2)n1 [II-47, N^4-(5-cyclopropyl-1H-pyrazol-3-yl)-N^2-((6-fluoro-1H-indazol-4-yl)methyl)-N^2-(2-(methylamino)ethyl)pyrimidine-2,4-diamine] | < 0.05 | – |
| CN(C)CCCN(Cc1cc(F)cc2[nH]ncc12)c1nccc(Nc2cc(C3CC3)[nH]n2)n1 [II-48, N^4-(5-cyclopropyl-1H-pyrazol-3-yl)-N^2-(3-(dimethylamino)propyl)-N^2-((6-fluoro-1H-indazol-4-yl)methyl)pyrimidine-2,4-diamine] | < 0.05 | – |
| CN(Cc1ccc2[nH]cnc2c1Cl)c1nccc(Nc2cc([C@@H]3C[C@H]3F)[nH]n2)n1 [II-49, N^2-((4-chloro-1H-benzo[d]imidazol-5-yl)methyl)-N^4-(5-((1S,2R)-2-fluorocyclopropyl)-1H-pyrazol-3-yl)-N^2-methylpyrimidine-2,4-diamine] | < 0.05 | – |

| Compound | Ki [1] [µM] | further results |
| --- | --- | --- |
| Clc1cc(CNc2nccc(Nc3cc(C4CC4)[nH]n3)n2)c2cn[nH]c2c1 [II-50, N^2-((6-chloro-1H-indazol-4-yl)methyl)-N^4-(5-cyclopropyl-1H-pyrazol-3-yl)pyrimidine-2,4-diamine] | < 0.05 | – |
| Fc1cc(CNc2nccc(Nc3cc(C4CC4)[nH]n3)n2)c2cn[nH]c2c1 [II-52, N^4-(5-cyclopropyl-1H-pyrazol-3-yl)-N^2-((6-fluoro-1H-indazol-4-yl)methyl)pyrimidine-2,4-diamine] | < 0.05 | – |
| C[C@H](Nc1nccc(Nc2cc(C3CC3)[nH]n2)n1)c1cc(F)cc2[nH]ncc12 [II-53, (S)-N^4-(5-cyclopropyl-1H-pyrazol-3-yl)-N^2-(1-(6-fluoro-1H-indazol-4-yl)ethyl)pyrimidine-2,4-diamine] | < 0.05 | – |
| CN(Cc1ccc2[nH]cnc2c1Cl)c1nccc(Nc2cc([C@H]3CC3(F)F)[nH]n2)n1 [II-54, (R)-N^2-((4-chloro-1H-benzo[d]imidazol-5-yl)methyl)-N^4-(5-(2,2-difluorocyclopropyl)-1H-pyrazol-3-yl)-N^2-methylpyrimidine-2,4-diamine] | < 0.05 | – |
| CN(Cc1ccc2[nH]cnc2c1Cl)c1nccc(Nc2cc(C3(F)CC3)[nH]n2)n1 [II-55, N^2-((4-chloro-1H-benzo[d]imidazol-5-yl)methyl)-N^4-(5-(1-fluorocyclorpropyl)-1H-pyrazol-3-yl)-N^2-methylpyrimidine-2,4-diamine] | < 0.05 | – |
| Fc1cnc(NCc2cc(Cl)cc3[nH]ncc23)nc1Nc1cc(C2CC2)[nH]n1 [II-57, N^2-((6-chloro-1H-indazol-4-yl)methyl)-N^4-(5-cyclopropyl-1H-pyrazol-3-yl)-5-fluoropyrimidine-2,4-diamine] | < 0.05 | – |
| CN(Cc1cc(F)cc2[nH]ncc12)c1nccc(Nc2cc(C3CC3)[nH]n2)n1 [II-58, N^4-(5-cyclopropyl-1H-pyrazol-3-yl)-N^2-((6-fluoro-1H-indazol-4-yl)methyl)-N^2-methylpyrimidine-2,4-diamine] | < 0.05 | – |
| Fc1cc(CNc2nccc(Nc3cc([C@H]4C[C@@H]4F)[nH]n3)n2)c2cn[nH]c2c1 [II-60, N^2-((6-fluoro-1H-indazol-4-yl)methyl)-N^4-(5-((1R,2S)-2-fluorocyclopropyl)-1H-pyrazol-3-yl)pyrimidine-2,4-diamine] | < 0.05 | – |
| C[C@H](Nc1nccc(Nc2cc(C3CC3)[nH]n2)n1)c1c(F)ccc2[nH]ncc12 [II-61, (S)-N^4-(5-cyclopropyl-1H-pyrazol-3-yl)-N^2-(1-(5-fluoro-1H-indazol-4-yl)ethyl)pyrimidine-2,4-diamine] | < 0.05 | – |
| C[C@H](CN(Cc1cc(F)cc2[nH]ncc12)c1nccc(Nc2cc(C3CC3)[nH]n2)n1)N(C)C [II-62, (R)-N^4-(5-cyclopropyl-1H-pyrazol-3-yl)-N^2-(2-(dimethylamino)propyl)-N^2-((6-fluoro-1H-indazol-4-yl)methyl)pyrimidine-2,4-diamine] | < 0.05 | – |
| CC(C)N(Cc1cc(F)cc2[nH]ncc12)c1nccc(Nc2cc(C3CC3)[nH]n2)n1 [II-63, N^4-(5-cyclopropyl-1H-pyrazol-3-yl)-N^2-((6-fluoro-1H-indazol-4-yl)methyl)-N^2-isopropylpyrimidine-2,4-diamine] | < 0.05 | – |
| Fc1cc(CNc2nccc(Nc3cc([C@@H]4C[C@H]4F)[nH]n3)n2)c2cn[nH]c2c1 [II-64, N^2-((6-fluoro-1H-indazol-4-yl)methyl)-N^4-(5-((1S,2R)-2-fluorocyclopropyl)-1H-pyrazol-3-yl)pyrimidine-2,4-diamine] | < 0.05 | – |
| Fc1cc(CNc2nccc(Nc3cc([C@@H]4CC4(F)F)[nH]n3)n2)c2cn[nH]c2c1 [II-65, (S)-N^4-(5-(2,2-difluorocyclopropyl)-1H-pyrazol-3-yl)-N^2-((6-fluoro-1H-indazol-4-yl)methyl)pyrimidine-2,4-diamine] | < 0.05 | – |
| OCCN(Cc1cc(F)cc2[nH]ncc12)c1nccc(Nc2cc(C3CC3)[nH]n2)n1 [II-66, 2-((4-((5-cyclopropyl-1H-pyrazol-3-yl)amino)pyrimidin-2-yl)((6-fluoro-1H-indazol-4-yl)methyl)anino)ethanol] | < 0.05 | – |
| C[C@@H](O)CN(Cc1cc(F)cc2[nH]ncc12)c1nccc(Nc2cc(C3CC3)[nH]n2)n1 [II-67, (R)-1-((4-((5-cyclopropyl-1H-pyrazol-3-yl)amino)pyrimidin-2-yl)((6-fluoro-1H-indazol-4-yl)methyl)amino)propan-2-ol] | < 0.05 | – |
| CCc1cc(Nc2nc(N(C)Cc3ccc4[nH]cnc4c3Cl)ncc2F)n[nH]1 [II-69, N^2-((4-chloro-1H-benzo[d]imidazol-5-yl)methyl)-N^4-(5-ethyl-1H-pyrazol-3-yl)-5-fluoro-N^2-methylpyrimidine-2,4-diamine] | 0.25 to 1 | – |
| CCN(Cc1cc(F)cc2[nH]ncc12)c1nccc(Nc2cc(C3CC3)[nH]n2)n1 [II-70, N^4-(5-cyclopropyl-1H-pyrazol-3-yl)-N^2-ethyl-N^2-((6-fluoro-1H-indazol-4-yl)methyl)pyrimidine-2,4-diamine] | < 0.05 | – |
